In PubChem BioAssay AID270 (DTP/NCI, 2004):
Where “and” joins values, the source holds several entries; their conditions need not be identical. Identical values can stand only once. Results filed as inconclusive are left out.

Test system: BDF1 mice, s.c. Lewis lung carcinoma, T/C %
Experiment: NCI In Vivo Anticancer Drug Screen. Data for tumor model Lewis Lung Carcinoma (subcutaneous) in B6D2F1 (BDF1) mice
Protocol: The antitumor activity of compounds was measured in mice bearing transplantable tumors. Survival or tumor size were measured and the results are expressed as the measurement made in the treated group (T) divided by the measurement made in the vehicle treated control group (C). The tumor model used in this assay is Lewis Lung Carcinoma (subcutaneous) in B6D2F1 (BDF1) mice

[1] = endpoint: median survival time, dose: 50.0 mg/kg/injection, schedule: Q01DX009 (ip), vehicle: Klucel (hydroxypropylcellulose) (HPC), higher = longer survival

With COC1=C(N)C(=O)c2nc(-c3nc(C(=O)O)c(C)c(-c4ccc(OC)c(OC)c4O)c3N)ccc2C1=O the T/C (endpoint: mean tumor weight, dose: 0.06 mg/kg/injection, schedule: Q01DX011 (ip), vehicle: water, higher = larger tumour) was 68 % of control, the T/C (endpoint: mean tumor weight, dose: 0.12 mg/kg/injection, schedule: Q01DX011 (ip), vehicle: water, higher = larger tumour) was 56 % of control and the T/C (endpoint: mean tumor weight, dose: 0.25 mg/kg/injection, schedule: Q01DX011 (ip), vehicle: water, higher = larger tumour) was 42 % of control. The T/C (endpoint: median survival time, dose: 62.5 micrograms/kg/injection, schedule: Q01DX009 (ip), vehicle: saline, higher = longer survival) was 98 % of control, the T/C (endpoint: median survival time, dose: 125.0 micrograms/kg/injection, schedule: Q01DX009 (ip), vehicle: saline, higher = longer survival) was 112 % of control and the T/C (endpoint: median survival time, dose: 250.0 micrograms/kg/injection, schedule: Q01DX009 (ip), vehicle: saline, higher = longer survival) was 98 % of control.

With c1ccc(C2=C(c3ccccc3)C(c3ccccc3)=C(c3ccccc3)C2)cc1 the T/C (endpoint: mean tumor weight, dose: 118.0 mg/kg/injection, schedule: Q01DX011 (ip), vehicle: other, higher = larger tumour) was 89 % of control, the T/C (endpoint: mean tumor weight, dose: 178.0 mg/kg/injection, schedule: Q01DX011 (ip), vehicle: other, higher = larger tumour) was 65 % of control and the T/C (endpoint: mean tumor weight, dose: 250.0 mg/kg/injection, schedule: Q01DX011 (ip), vehicle: other, higher = larger tumour) was 92 % of control. The T/C (endpoint: mean tumor weight, dose: 266.0 mg/kg/injection, schedule: Q01DX011 (ip), vehicle: other, higher = larger tumour) was 84 % of control, the T/C (endpoint: mean tumor weight, dose: 400.0 mg/kg/injection, schedule: Q01DX011 (ip), vehicle: other, higher = larger tumour) was 109 % of control and the T/C (endpoint: mean tumor weight, dose: 750.0 mg/kg/injection, schedule: Q01DX011 (ip), vehicle: other, higher = larger tumour) was 124 % of control. For the same compound, the T/C (endpoint: mean tumor weight, dose: 1000.0 mg/kg/injection, schedule: Q01DX011 (ip), vehicle: other, higher = larger tumour) was 60 % of control.

With O=NN(CCCl)C(=O)NC1CCC(CC2CCC(NC(=O)N(CCCl)N=O)CC2)CC1 (stereo unspecified) the T/C (endpoint: median tumor weight (est.), dose: 46.0 mg/kg/injection, schedule: Q01DX001 (ip), vehicle: gum acacia, higher = larger tumour) was 80 % of control, the T/C (endpoint: median tumor weight (est.), dose: 93.0 mg/kg/injection, schedule: Q01DX001 (ip), vehicle: gum acacia, higher = larger tumour) was 76 % of control and the T/C (endpoint: median tumor weight (est.), dose: 187.0 mg/kg/injection, schedule: Q01DX001 (ip), vehicle: gum acacia, higher = larger tumour) was 55 % of control. For the same compound, the T/C (endpoint: median tumor weight (est.), dose: 250.0 mg/kg/injection, schedule: Q01DX001 (ip), vehicle: gum acacia, higher = larger tumour) was 10 % of control and the T/C (endpoint: median tumor weight (est.), dose: 375.0 mg/kg/injection, schedule: Q01DX001 (ip), vehicle: gum acacia, higher = larger tumour) was 3 % of control.

With O=P1(NCCCl)OCCCN1CCCl (stereo unspecified) the T/C (endpoint: mean tumor weight, dose: 12.5 mg/kg/injection, schedule: Q01DX011 (ip), vehicle: saline, higher = larger tumour) was 114 % of control, the T/C (endpoint: mean tumor weight, dose: 25.0 mg/kg/injection, schedule: Q01DX011 (ip), vehicle: saline, higher = larger tumour) was 14 % of control and the T/C (endpoint: mean tumor weight, dose: 50.0 mg/kg/injection, schedule: Q01DX011 (ip), vehicle: saline, higher = larger tumour) was 2 % of control. The T/C (endpoint: median survival time, dose: 25.0 mg/kg/injection, schedule: Q01DX009 (ip), vehicle: Klucel (hydroxypropylcellulose) (HPC), higher = longer survival) was 100 % of control, the T/C (endpoint: median survival time, dose: 50.0 mg/kg/injection, schedule: Q01DX001 (ip), vehicle: saline, higher = longer survival) was 106 % of control and the T/C [1] was 150 % of control. For the same compound, the T/C (endpoint: median survival time, dose: 100.0 mg/kg/injection, schedule: Q01DX001 (ip), vehicle: saline, higher = longer survival) was 124 % of control, the T/C (endpoint: median survival time, dose: 200.0 mg/kg/injection, schedule: Q01DX001 (ip), vehicle: saline, higher = longer survival) was 200 % of control and 243 % of control and the T/C (endpoint: median survival time, dose: 400.0 mg/kg/injection, schedule: Q01DX001 (ip), vehicle: saline, higher = longer survival) was 200 % of control and 243 % of control. The T/C (endpoint: median survival time, dose: 800.0 mg/kg/injection, schedule: Q01DX001 (ip), vehicle: saline, higher = longer survival) was 243 % of control.

For S=P(N1CC1)(N1CC1)N1CC1, the T/C (endpoint: mean tumor weight, dose: 0.75 mg/kg/injection, schedule: Q01DX011 (ip), vehicle: water, higher = larger tumour) was 79 % of control, the T/C (endpoint: mean tumor weight, dose: 1.5 mg/kg/injection, schedule: Q01DX011 (ip), vehicle: water, higher = larger tumour) was 81 % of control and the T/C (endpoint: mean tumor weight, dose: 3.0 mg/kg/injection, schedule: Q01DX011 (ip), vehicle: water, higher = larger tumour) was 44 % of control. The T/C (endpoint: mean tumor weight, dose: 6.0 mg/kg/injection, schedule: Q01DX011 (ip), vehicle: water, higher = larger tumour) was 21 % of control, the T/C (endpoint: median survival time, dose: 0.5 mg/kg/injection, schedule: Q01DX009 (ip), vehicle: saline, higher = longer survival) was 103 % of control and the T/C (endpoint: median survival time, dose: 1.0 mg/kg/injection, schedule: Q01DX009 (ip), vehicle: saline, higher = longer survival) was 100 % of control. For the same compound, the T/C (endpoint: median survival time, dose: 1.0 mg/kg/injection, schedule: Q02DX009 (ip), vehicle: saline, higher = longer survival) was 110 % of control, the T/C (endpoint: median survival time, dose: 1.5 mg/kg/injection, schedule: Q01DX009 (ip), vehicle: Klucel (hydroxypropylcellulose) (HPC), higher = longer survival) was 103 % of control and the T/C (endpoint: median survival time, dose: 2.0 mg/kg/injection, schedule: Q01DX009 (ip), vehicle: saline, higher = longer survival) was 100 % of control. For the same compound, the T/C (endpoint: median survival time, dose: 2.0 mg/kg/injection, schedule: Q02DX009 (ip), vehicle: saline, higher = longer survival) was 98 % of control, the T/C (endpoint: median survival time, dose: 3.0 mg/kg/injection, schedule: Q01DX009 (ip), vehicle: Klucel (hydroxypropylcellulose) (HPC), higher = longer survival) was 113 % of control and the T/C (endpoint: median survival time, dose: 4.0 mg/kg/injection, schedule: Q01DX009 (ip), vehicle: saline, higher = longer survival) was 86 % of control. The T/C (endpoint: median survival time, dose: 4.0 mg/kg/injection, schedule: Q02DX009 (ip), vehicle: saline, higher = longer survival) was 102 % of control and the T/C (endpoint: median survival time, dose: 8.0 mg/kg/injection, schedule: Q02DX009 (ip), vehicle: saline, higher = longer survival) was 94 % of control.

For O=NN(CCCl)C(=O)Nc1ccc(CCCl)cc1, the T/C (endpoint: mean tumor weight, dose: 1.5 mg/kg/injection, schedule: Q01DX001 (ip), vehicle: carboxymethylcellulose (CMC), higher = larger tumour) was 91 % of control, the T/C (endpoint: mean tumor weight, dose: 3.0 mg/kg/injection, schedule: Q01DX001 (ip), vehicle: carboxymethylcellulose (CMC), higher = larger tumour) was 106 % of control and the T/C (endpoint: mean tumor weight, dose: 6.0 mg/kg/injection, schedule: Q01DX001 (ip), vehicle: carboxymethylcellulose (CMC), higher = larger tumour) was 90 % of control. For the same compound, the T/C (endpoint: mean tumor weight, dose: 12.0 mg/kg/injection, schedule: Q01DX001 (ip), vehicle: carboxymethylcellulose (CMC), higher = larger tumour) was 52 % of control.

For CC(=O)O[C@]1(C(C)=O)CC[C@H]2[C@@H]3C[C@H](C)C4=CC(=O)CC[C@]4(C)[C@H]3CC[C@@]21C, the T/C [1] was 203 % of control, the T/C (endpoint: median survival time, dose: 100.0 mg/kg/injection, schedule: Q01DX009 (ip), vehicle: Klucel (hydroxypropylcellulose) (HPC), higher = longer survival) was 204 % of control and the T/C (endpoint: median survival time, dose: 200.0 mg/kg/injection, schedule: Q01DX009 (ip), vehicle: Klucel (hydroxypropylcellulose) (HPC), higher = longer survival) was 119 % of control. The T/C (endpoint: median survival time, dose: 400.0 mg/kg/injection, schedule: Q01DX009 (ip), vehicle: Klucel (hydroxypropylcellulose) (HPC), higher = longer survival) was 203 % of control.

With CC(C)C[CH2][Pb]([Cl])([CH2]CC(C)C)[CH2]CC(C)C the T/C (endpoint: median survival time, dose: 0.25 mg/kg/injection, schedule: Q01DX009 (ip), vehicle: Klucel (hydroxypropylcellulose) (HPC), higher = longer survival) was 112 % of control, the T/C (endpoint: median survival time, dose: 0.5 mg/kg/injection, schedule: Q01DX009 (ip), vehicle: Klucel (hydroxypropylcellulose) (HPC), higher = longer survival) was 102 % of control and the T/C (endpoint: median survival time, dose: 1.0 mg/kg/injection, schedule: Q01DX009 (ip), vehicle: Klucel (hydroxypropylcellulose) (HPC), higher = longer survival) was 93 % of control.

S=C([S][Sn]([c]1ccccc1)([c]1ccccc1)[c]1ccccc1)N1CCCCC1 was tested, and the T/C (endpoint: median survival time, dose: 3.12 mg/kg/injection, schedule: Q01DX009 (ip), vehicle: saline with Tween-80, higher = longer survival) was 102 % of control, the T/C (endpoint: median survival time, dose: 12.5 mg/kg/injection, schedule: Q01DX009 (ip), vehicle: saline with Tween-80, higher = longer survival) was 94 % of control and the T/C (endpoint: median survival time, dose: 25.0 mg/kg/injection, schedule: Q01DX009 (ip), vehicle: saline with Tween-80, higher = longer survival) was 89 % of control.
